# Source: ChEMBL document CHEMBL5252615, “Synthesis, biological activity and mechanism of action of novel allosecurinine derivatives as potential antitumor agents” (Bioorg Med Chem, 2023)
# Activity calls are given as the source filed them. The rule behind the calls is not given here.
# Legend:
# NB-4 [1] = assay: Induction of apoptosis in human NB4 cells assessed as viable cells at 2.5 uM after 48 hrs by Annexin-V-FITC/PI staining based flow cytometric analysis (reference value: 97.96%); assay type: functional; settings: read-out: Activity
# K562 [2] = assay: Induction of apoptosis in human K562 cells assessed as decrease in expression level of Bcl-2 measured after 48 hrs by Western blotting analysis; assay type: functional, cell-based; settings: dose 1-5 µM
# NB-4 [3] = assay: Induction of apoptosis in human NB4 cells assessed as decrease in expression level of Bcl-2 measured after 48 hrs by Western blotting analysis; assay type: functional, cell-based; settings: dose 1-5 µM
# NB-4 [4] = assay: Antitumor activity against human NB4 cells assessed as reduction in cell viability incubated for 72 hrs; assay type: functional, cell-based; settings: NB-4, 72 h
# HL-60 [5] = assay: Antitumor activity against human HL-60 cells assessed as reduction in cell viability incubated for 72 hrs; assay type: functional, cell-based; settings: HL-60, 72 h
# THP-1 [6] = assay: Antitumor activity against human THP-1 cells assessed as reduction in cell viability incubated for 72 hrs; assay type: functional, cell-based; settings: THP-1, 72 h
# K562 [7] = assay: Antitumor activity against human K562 cells assessed as reduction in cell viability incubated for 72 hrs; assay type: functional, cell-based; settings: K562, 72 h
# SK-OV-3 = assay: Antitumor activity against human SK-OV-3 cells assessed as reduction in cell viability incubated for 72 hrs; assay type: functional, cell-based; settings: SK-OV-3, 72 h
# NB-4 [8] = assay: Induction of differentiation of human NB4 cells assessed as increase in CD11b expression at 0.5 uM measured after 72 hrs by flow cytometric analysis; assay type: functional, cell-based
# HL-60 [9] = assay: Induction of differentiation of human HL-60 cells assessed as increase in CD11b expression at 0.5 uM measured after 72 hrs by flow cytometric analysis; assay type: functional, cell-based
# KG-1 [10] = assay: Induction of differentiation of human KG-1 cells assessed as increase in CD11b expression at 0.5 uM measured after 72 hrs by flow cytometric analysis; assay type: functional, cell-based
# U-937 [11] = assay: Induction of differentiation of human U-937 cells assessed as increase in CD11b expression at 0.5 uM measured after 72 hrs by flow cytometric analysis; assay type: functional, cell-based
# NB-4 [12] = assay: Induction of apoptosis in human NB4 cells assessed as late apoptotic cells at 2.5 uM after 48 hrs by Annexin-V-FITC/PI staining based flow cytometric analysis (reference value: 0.89%); assay type: functional
# HL-60 [13] = assay: Induction of apoptosis in human HL-60 cells assessed as late apoptotic cells at 2.5 uM after 48 hrs by Annexin-V-FITC/PI staining based flow cytometric analysis (reference value: 0.44%); assay type: functional
# HL-60 [14] = assay: Induction of apoptosis in human HL-60 cells assessed as necrotic cells at 2.5 uM after 48 hrs by Annexin-V-FITC/PI staining based flow cytometric analysis (reference value: 2.83%); assay type: functional
# KG-1 [15] = assay: Induction of apoptosis in human KG-1 cells assessed as viable cells at 2.5 uM after 48 hrs by Annexin-V-FITC/PI staining based flow cytometric analysis (reference value: 96.41%); assay type: functional
# K562 [16] = assay: Induction of apoptosis in human K562 cells assessed as early apoptotic cells at 2.5 uM after 48 hrs by Annexin-V-FITC/PI staining based flow cytometric analysis (reference value: 1.26%); assay type: functional
# THP-1 [17] = assay: Induction of apoptosis in human THP-1 cells assessed as viable cells at 2.5 uM after 48 hrs by Annexin-V-FITC/PI staining based flow cytometric analysis (reference value: 93.94%); assay type: functional; settings: read-out: Activity
# THP-1 [18] = assay: Induction of apoptosis in human THP-1 cells assessed as early apoptotic cells at 2.5 uM after 48 hrs by Annexin-V-FITC/PI staining based flow cytometric analysis (reference value: 4.61%); assay type: functional
# THP-1 [19] = assay: Induction of apoptosis in human THP-1 cells assessed as late apoptotic cells at 2.5 uM after 48 hrs by Annexin-V-FITC/PI staining based flow cytometric analysis (reference value: 1.26%); assay type: functional
# HL-60 [20] = assay: Induction of apoptosis in human HL-60 cells assessed as accumulation of cells at sub-G1 phase at 2.5 uM after 48 hrs by PI staining based flow cytometric analysis; assay type: functional, cell-based
# THP-1 [21] = assay: Induction of apoptosis in human THP-1 cells assessed as accumulation of cells at sub-G1 phase at 2.5 uM after 48 hrs by PI staining based flow cytometric analysis; assay type: functional, cell-based
# U-937 [22] = assay: Induction of apoptosis in human U-937 cells assessed as accumulation of cells at sub-G1 phase at 2.5 uM after 48 hrs by PI staining based flow cytometric analysis; assay type: functional, cell-based
# THP-1 [23] = assay: Induction of apoptosis in human THP-1 cells assessed as change in mitochondrial membrane potential after 48 hrs by JC-1 staining based flow cytometric analysis; assay type: functional, cell-based
# KG-1 [24] = assay: Induction of apoptosis in human KG-1 cells assessed as change in mitochondrial membrane potential after 48 hrs by JC-1 staining based flow cytometric analysis; assay type: functional, cell-based
# U-937 [25] = assay: Induction of apoptosis in human U-937 cells assessed as change in mitochondrial membrane potential after 48 hrs by JC-1 staining based flow cytometric analysis; assay type: functional, cell-based
# U-937 [26] = assay: Induction of reactive oxygen species production in human U-937 cells at 1 to 5 uM measured after 48 hrs by DCFH-DA staining based flow cytometric analysis; assay type: functional, cell-based; settings: dose 1-5 µM
# KG-1 [27] = assay: Induction of reactive oxygen species production in human KG-1 cells at 1 to 5 uM measured after 48 hrs by DCFH-DA staining based flow cytometric analysis; assay type: functional, cell-based; settings: dose 1-5 µM
# U-937 [28] = assay: Induction of reactive oxygen species production in human U-937 cells at 1 to 5 uM measured after 48 hrs by DCF fluorescence analysis; assay type: functional, cell-based; settings: dose 1-5 µM
# THP-1 [29] = assay: Induction of reactive oxygen species production in human THP-1 cells at 1 to 5 uM measured after 48 hrs by DCF fluorescence analysis; assay type: functional, cell-based; settings: dose 1-5 µM
# KG-1 [30] = assay: Induction of apoptosis in human KG-1 cells assessed as decrease in expression level of XIAP measured at 1 to 5 uM after 48 hrs by Western blotting analysis; assay type: functional, cell-based; settings: dose 1-5 µM
# NB-4 [31] = assay: Induction of apoptosis in human NB4 cells assessed as decrease in expression level of YAP1 measured at 1 to 5 uM after 48 hrs by Western blotting analysis; assay type: functional, cell-based; settings: dose 1-5 µM
# KG-1 [32] = assay: Induction of apoptosis in human KG-1 cells assessed as decrease in expression level of YAP1 measured at 1 to 5 uM after 48 hrs by Western blotting analysis; assay type: functional, cell-based; settings: dose 1-5 µM
# K562 [33] = assay: Induction of apoptosis in human K562 cells assessed as decrease in expression level of YAP1 measured at 1 to 5 uM after 48 hrs by Western blotting analysis; assay type: functional, cell-based; settings: dose 1-5 µM
# THP-1 [34] = assay: Induction of apoptosis in human THP-1 cells assessed as decrease in expression level of PARP measured at 1 to 5 uM after 48 hrs by Western blotting analysis; assay type: functional, cell-based; settings: dose 1-5 µM
# U-937 [35] = assay: Induction of apoptosis in human U-937 cells assessed as decrease in expression level of PARP measured at 1 to 5 uM after 48 hrs by Western blotting analysis; assay type: functional, cell-based; settings: dose 1-5 µM
smiles,measurement,setting,value
O=C1O[C@@]23C[C@@H](C=CC2=C1C(O)c1ccc([N+](=O)[O-])cc1)N1CCCC[C@H]13 (stereo partly specified),viability at 2.5 µM,NB-4 [1],22.9%
same,Activity,K562 [2],Dose-Dependent Effect
same,Activity,NB-4 [3],Dose-Dependent Effect
same,IC50,NB-4 [4],1880 nM
same,IC50,HL-60 [5],3.95 µM
same,IC50,THP-1 [6],2840 nM
same,IC50,K562 [7],1780 nM
same,IC50,SK-OV-3,4.84 µM
same,Activity,NB-4 [8],Active
same,Activity,HL-60 [9],Active
same,Activity,KG-1 [10],Active
same,Activity,U-937 [11],Active
same,Activity,NB-4 [12],50.58%
same,Activity,HL-60 [13],6.43%
same,Activity,HL-60 [14],2.42%
same,Activity,KG-1 [15],45.18%
same,Activity,K562 [16],3.32%
same,viability at 2.5 µM,THP-1 [17],69.7%
same,Activity,THP-1 [18],16.82%
same,Activity,THP-1 [19],11.77%
same,Activity,HL-60 [20],Active
same,Activity,THP-1 [21],Active
same,Activity,U-937 [22],Active
same,Activity,THP-1 [23],Active
same,Activity,KG-1 [24],Active
same,Activity,U-937 [25],Active
same,Activity,U-937 [26],Active
same,Activity,KG-1 [27],Active
same,Activity,U-937 [28],Active
same,Activity,THP-1 [29],Active
same,Activity,KG-1 [30],Active
same,Activity,NB-4 [31],Active
same,Activity,KG-1 [32],Active
same,Activity,K562 [33],Active
same,Activity,THP-1 [34],Active
same,Activity,U-937 [35],Active
